This passage reports inhibition and Activity results from ChEMBL document CHEMBL6177932 (J Med Chem, 2024).

In data set [1] the test system is 4TO7. In words: Inhibition of class 1 HDAC in mouse 4TO7 cells assessed as induction of H3K9 acetylation at 10 uM measured after 6 hrs by Western blot analysis. It is filed as cell-based.
The test system of data set [2] is 4TO7. In words: Inhibition of class 1 HDAC in mouse 4TO7 cells assessed as induction of H3K27 acetylation at 10 uM measured after 6 hrs by Western blot analysis. It is filed as cell-based.
Data set [3] deals with T1, Protein deacetylase HDAC6 (Mus musculus) (UniProt Q9Z2V5).
T1 sequence (whole entry): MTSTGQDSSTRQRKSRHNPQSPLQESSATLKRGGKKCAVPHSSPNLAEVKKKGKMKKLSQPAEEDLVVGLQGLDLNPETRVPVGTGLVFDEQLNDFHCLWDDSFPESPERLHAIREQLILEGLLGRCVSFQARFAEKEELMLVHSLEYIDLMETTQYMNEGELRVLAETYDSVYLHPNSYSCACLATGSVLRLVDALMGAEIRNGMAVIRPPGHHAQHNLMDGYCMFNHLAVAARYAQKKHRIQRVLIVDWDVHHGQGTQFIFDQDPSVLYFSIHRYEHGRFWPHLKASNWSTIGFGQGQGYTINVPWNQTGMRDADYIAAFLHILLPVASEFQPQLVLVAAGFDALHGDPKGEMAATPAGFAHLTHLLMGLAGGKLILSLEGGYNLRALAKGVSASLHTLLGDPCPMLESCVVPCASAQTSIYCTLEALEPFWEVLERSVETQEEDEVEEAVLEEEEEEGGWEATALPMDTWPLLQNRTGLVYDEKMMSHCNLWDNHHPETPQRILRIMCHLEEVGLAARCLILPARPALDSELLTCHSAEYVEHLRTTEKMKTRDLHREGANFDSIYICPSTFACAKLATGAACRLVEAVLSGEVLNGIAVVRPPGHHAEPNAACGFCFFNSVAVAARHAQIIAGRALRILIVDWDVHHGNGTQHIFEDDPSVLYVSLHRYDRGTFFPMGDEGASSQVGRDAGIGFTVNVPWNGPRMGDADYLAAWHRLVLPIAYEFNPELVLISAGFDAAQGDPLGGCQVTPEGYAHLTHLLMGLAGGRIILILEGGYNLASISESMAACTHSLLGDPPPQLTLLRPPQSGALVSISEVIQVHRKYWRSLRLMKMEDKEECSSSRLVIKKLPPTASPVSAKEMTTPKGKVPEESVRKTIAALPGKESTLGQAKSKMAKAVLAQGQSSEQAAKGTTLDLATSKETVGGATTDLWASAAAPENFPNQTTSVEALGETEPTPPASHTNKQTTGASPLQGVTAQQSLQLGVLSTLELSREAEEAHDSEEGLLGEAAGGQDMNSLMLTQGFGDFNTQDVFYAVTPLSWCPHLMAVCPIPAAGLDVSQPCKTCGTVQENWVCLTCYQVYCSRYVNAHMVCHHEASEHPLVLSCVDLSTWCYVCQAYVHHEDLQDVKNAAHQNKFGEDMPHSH
In words: Inhibition of HDAC6 in mouse 4TO7 cells assessed as induction of tubulin acetylation at 10 uM measured after 6 hrs by Western blot analysis. It counts as cell-based. For orientation: Immunoblotting shows a protein as a band on a membrane.

The subject of data set [4] is 4T1. As to conditions: Mus musculus, time 24.0 hrs.
For data set [5], the target named is T2, Vitamin D3 receptor (Mus musculus) (UniProt P48281).
T2 sequence (whole entry): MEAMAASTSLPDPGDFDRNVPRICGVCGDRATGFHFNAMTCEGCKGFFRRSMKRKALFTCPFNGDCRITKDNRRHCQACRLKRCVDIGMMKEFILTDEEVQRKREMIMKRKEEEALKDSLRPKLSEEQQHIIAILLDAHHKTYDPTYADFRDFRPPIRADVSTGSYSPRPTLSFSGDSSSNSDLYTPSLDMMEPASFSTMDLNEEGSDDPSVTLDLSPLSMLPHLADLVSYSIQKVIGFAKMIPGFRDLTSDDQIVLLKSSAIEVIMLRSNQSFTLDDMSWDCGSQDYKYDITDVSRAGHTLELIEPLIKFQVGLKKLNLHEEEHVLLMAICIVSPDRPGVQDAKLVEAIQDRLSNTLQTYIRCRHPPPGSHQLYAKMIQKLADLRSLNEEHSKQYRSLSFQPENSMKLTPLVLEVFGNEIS
Put plainly: Agonist activity at VDR in mouse 4TO7 cells assessed as induction of Cyp24a1 gene at 0.1 to 10 uM measured after 24 hrs by RT-qPCR analysis. It is filed as cell-based. As to conditions: filed as agonist, dose 0.1-10 µM. For orientation: In qPCR the cycle at which signal appears reflects the starting amount.

Data set [6] deals with T2, Vitamin D3 receptor (Mus musculus). In words: Agonist activity at VDR in mouse 4T1 cells assessed as induction of Cyp24a1 gene at 0.1 to 10 uM measured after 24 hrs by RT-qPCR analysis. It counts as cell-based. As to conditions: filed as agonist, dose 0.1-10 µM.
Data set [7] can be described thus: Toxicity in mouse B16-F10 cells implanted C57BL/6 mouse at 50 mg/kg, ip administered daily for 28 days. It counts as organism-based. The note with it: in vivo, time 28 day.
The nature of data set [8]: Toxicity in mouse B16-F10 cells implanted C57BL/6 mouse assessed as effect on body weight at 50 mg/kg, ip administered daily for 28 days. It is filed as organism-based. As to conditions: in vivo, time 28 day.
The test system of data set [9] is B16-F10. Put plainly: Antitumor activity against mouse B16-F10 cells implanted in C57BL/6 mouse assessed as reduction in tumor burden at 50 mg/kg, ip administered every second day for 18 days. It counts as functional, organism-based. As to conditions: time 18.0 day.
Data set [10] concerns B16-F10. Put plainly: Inhibition of class 1 HDAC in mouse B16-F10 cells assessed as induction of H3K27 acetylation at 10 uM measured after 6 hrs by Western blot analysis. It is filed as cell-based.
Data set [11] relates to B16-F10. In words: Inhibition of class 1 HDAC in mouse B16-F10 cells assessed as induction of H3K9 acetylation at 10 uM measured after 6 hrs by Western blot analysis. It is filed as cell-based.
Data set [12] has as its target T1, Protein deacetylase HDAC6 (Mus musculus). In words: Inhibition of HDAC6 in mouse B16-F10 cells assessed as induction of tubulin acetylation at 10 uM measured after 6 hrs by Western blot analysis. It is filed as cell-based.
The test system of data set [13] is Mus musculus. Put plainly: Immunomodulatory activity in mouse 4T1 cells implanted BALB/c mouse assessed as reduction in Ccl20 gene expression at 0.2 mg/kg, ip administered daily for 18 days by RT-qPCR analysis. It counts as functional, organism-based. The note with it: time 18.0 day.
In data set [14] the test system is Mus musculus. In words: Immunomodulatory activity in mouse 4T1 cells implanted BALB/c mouse assessed as reduction in Ccl2 gene expression at 0.2 mg/kg, ip administered daily for 18 days by RT-qPCR analysis. It counts as functional, organism-based. As to conditions: time 18.0 day.
The subject of data set [15] is 4T1. In words: Inhibition of class 1 HDAC in mouse 4T1 cells assessed as induction of H3K9 acetylation at 10 uM measured after 6 hrs by Western blot analysis. It is filed as cell-based.
Data set [16] deals with B16-F10. In words: Cytotoxicity against mouse B16-F10 cells assessed as reduction in cell viability at 0.01 to 100 uM measured after 24 hrs by RealTime-glo cell viability assay. It counts as functional, cell-based. As to conditions: dose 0.01-100 µM.
The subject of data set [17] is 4T1. Put plainly: Inhibition of class 1 HDAC in mouse 4T1 cells assessed as induction of H3K27 acetylation at 10 uM measured after 6 hrs by Western blot analysis. It counts as cell-based.
In data set [18] the target is T1, Protein deacetylase HDAC6 (Mus musculus). Put plainly: Inhibition of HDAC6 in mouse 4T1 cells assessed as induction of tubulin acetylation at 10 uM measured after 6 hrs by Western blot analysis. It is filed as cell-based.
Data set [19] can be described thus: Toxicity in 4T1 cells implanted BALB/c mouse assessed as stress at 0.2 mg/kg, ip administered daily for 18 days. It is filed as organism-based. As to conditions: in vivo, 432 h, time 18 day.
A short description of data set [20]: Toxicity in mouse B16-F10 cells implanted C57BL/6 mouse assessed as effect on body weight at 0.2 mg/kg, ip administered daily for 28 days. It is filed as organism-based. The note with it: in vivo, time 28 day.
Data set [21] deals with B16-F10. In words: Antitumor activity against mouse B16-F10 cells implanted in C57BL/6 mouse assessed as reduction in tumor burden at 0.2 mg/kg, ip administered every second day for 18 days. It counts as functional, organism-based. As to conditions: time 18.0 day.
For data set [22], the system named is Mus musculus. Put plainly: Immunomodulatory activity in mouse 4T1 cells implanted BALB/c mouse assessed as induction of Il1a gene expression at 0.2 mg/kg, ip administered daily for 18 days by RT-qPCR analysis. The note with it: time 18.0 day. It counts as functional, organism-based.
Data set [23] can be described thus: Toxicity in mouse B16-F10 cells implanted C57BL/6 mouse at 0.2 mg/kg, ip administered daily for 28 days. It is filed as organism-based. The note with it: in vivo, time 28 day.
Data set [24] deals with Mus musculus. Put plainly: Immunomodulatory activity in mouse 4T1 cells implanted BALB/c mouse assessed as reduction in Cxcl10 gene expression at 0.2 mg/kg, ip administered daily for 18 days by RT-qPCR analysis. It is filed as functional, organism-based. The note with it: time 18.0 day.
The test system of data set [25] is 4T1. Put plainly: Antitumor activity against mouse 4T1 cells implanted in BALB/c mouse assessed as reduction in tumor burden at 0.2 mg/kg, ip administered daily for 18 days. It is filed as functional, organism-based. The note with it: time 18.0 day.
The test system of data set [26] is Mus musculus. In words: Immunomodulatory activity in mouse 4T1 cells implanted BALB/c mouse assessed as reduction in Ccl5 gene expression at 0.2 mg/kg, ip administered daily for 18 days by RT-qPCR analysis. It is filed as functional, organism-based. The note with it: time 18.0 day.
The nature of data set [27]: Toxicity in 4T1 cells implanted BALB/c mouse assessed as body weight loss at 0.2 mg/kg, ip administered daily for 18 days. It counts as organism-based. As to conditions: in vivo, 432 h, time 18 day.

Active and inactive are the calls of the source. The rule behind the calls is not given here.

On to `CCC(CC)(c1ccc(C(=O)NCCCCCC(=O)NO)cc1)c1ccc(OCC(O)C(C)(C)C)c(C)n1` (configuration not stated), for which the inhibition result (with 4TO7 [1]; in the data set on 4TO7 [2]; in data set [3]) was “Active” in each case. Also, the result (in the data set with 4T1 [4]; in data set [5]) was Active. In [6], the Activity result is “Active; Did Not Appear To Be A Full Agonist”.

With `Nc1ccn([C@@H]2O[C@H](CO)[C@@H](O)C2(F)F)c(=O)n1` [GEMCITABINE], the Activity result in data set [7] and in [8] was “Non-toxic” throughout. In addition, the result in the data set on B16-F10 [9] was Active.

As for `CCC(CC)(c1ccc(C(=O)NCCCC(=O)NO)cc1)c1ccc(OCC(O)C(C)(C)C)c(C)n1` (configuration not stated), the inhibition result (in the data set with 4TO7 [1]; with 4TO7 [2]; in [3]) was “Active” in each case. Besides, the outcome (with 4T1 [4]; in [5]) was Active. Moreover, the Activity entry in data set [6] is “Active; Did Not Appear To Be A Full Agonist”.

Take `CCC(CC)(c1ccc(C(=O)NCCCCCC(=O)NO)cc1)c1ccc(OCC(O)C(C)(C)C)c(C)c1` (configuration not stated): the inhibition entry (with B16-F10 [10]; with B16-F10 [11]; in data set [12]) was “Active; High Levels Of Acetylation Observed” throughout. In addition, the outcome in [5] and in [6] was Active.

Consider `CCC(CC)(c1ccc(OCCCCCC(=O)NO)cc1)c1ccc(OCC(O)C(C)(C)C)c(C)n1` (configuration not stated), for which the outcome in the data set on Mus musculus [13], with Mus musculus [14], in the data set on B16-F10 [16], in the data set with B16-F10 [21], in the data set on Mus musculus [22] and in the data set on Mus musculus [24] was Active. The outcome (in data set [5]; with 4T1 [25]; in data set [6]; in the data set with Mus musculus [26]) was Active. Moreover, the inhibition result (with 4T1 [15]; in the data set on 4T1 [17]; in [18]) was “Active” in each case. For the same molecule, the Activity entry in data set [19], in [20], in data set [23] and in data set [27] was “Non-toxic” throughout.
